Consider four compounds from patent publication US20260115250A1, “METHODS OF TREATING AGE-RELATED MACULAR DEGENERATION” (Character Biosciences, Inc., priority 2022, published 2026).

Peptide text beside a SMILES is read from it.

One data set addresses LDLR (Homo sapiens, UniProt P01130). In words: KD, Peptide (μM). The text has this:
Table printed on a drawing sheet, FIG. 24B
Title: Buffer: HBS + 0.005% P20
Head of the field: KD, Peptide (μM)
The patent's description of the figure: FIGS. 24A-24B are tables showing the binding kinetics results of LDLR binding assays (SPR), lipid-dependent binding with a low-surfactant preparation as described herein for select peptides shown in FIG. 1A-1I.
First copying reader's note: Continued from FIG. 24A; KD values are LDLR binding by SPR for the peptide alone and for its DMPC lipid complex, with the error given in the same cell after ±.
Where the first naming reader finds the target: description_of_the_figure: FIGS. 24A-24B are tables showing the binding kinetics results of LDLR binding assays (SPR)

Data set [1] relates to ARPE-19 cells. In words: ARPE-19 cell viability assay (Cell Titer Glo). The following applies: 100 μM peptide, 1.5 hours. Type of data set: cell-based, human. The method, then: ARPE-19 cells were seeded in 96-well plates at 25,000 cells/well and allowed to adhere to the plate surface for at least 24 hours. Peptides were diluted in serum-free DMEM: F12 to a final concentration of 100 μM. Cells were washed, then incubated in 100 μM peptide solution for 1.5 hours at 37° C. Plates were brought to room temperature for 30 minutes, then washed with DPBS. Cells were incubated in a 1:1 mixture of DPBS and Cell Titer Glo 2.0 Reagent for 10 minutes at room temperature, then cell luminescence was read on a plate reader. Viability values were background corrected, and 0% viability is determined by luminescence values of cells treated with 1% Triton-X-100. Data are presented as mean+SD over two separate runs.

A short description of data set [2]: DMPC solubility titration, 1 mM DMPC. The format is biochemical. As to conditions: 3.16-100 μM peptides, 15 minutes. The method, then:
(§1) FIGS. 4A-4B illustrate a screening assay based on DMPC solubility, measured by reducing turbidity of DMPC liposome solutions, for a subset of the peptides in FIGS. 1B-1I. FIGS. 4A-4B illustrate DMPC solubility titration curves. Peptide stocks were diluted to 200 μM in H2O (a 2× solution) and serially diluted in H2O over 4 concentrations, then 50 μL of peptide solutions were distributed in triplicate into 96-well plates. A 2 mM solution of 1,2-dimyristoyl-sn-glycero-3-phosphocholine (DMPC) in H2O was prepared, and using a multichannel pipet, 50 μL DMPC solution was rapidly added to the plate. Peptide and lipid solutions were incubated at room temperature for 15 minutes with final concentrations of 3.16-100 μM peptides and 1 mM DMPC. After 15 minutes, absorbance was read on a plate reader at 405 nm. […] Data are presented as mean+SD over two runs. Non-linear regression was used to calculate EC50 values.

The subject of data set [3] is ARPE-19 cells. In words: ARPE-19 cholesterol import (BODIPY-Cholesterol). The format is cell-based, human. The following applies: ARPE-19, peptide:lipid complexes from 30 μM diluted 1:3, FIG. 16. The method, then:
FIG. 12 and FIGS. 14A-14B illustrate the results of ARPE-19 cholesterol import testing. ARPE-19 cells were seeded on 96-well plates at 25,000 cells per well and grown to confluence. A 2× solution of 500 μM DMPC and 50 μM BODIPY-Cholesterol were prepared in serum free DMEM: F12. Peptides were diluted to 20 μM in serum free DMEM: F12 (a 2× solution). Peptides were added to lipid solution in equal parts (60 μL each) and were incubated for 1 hour at 37° C. ARPE-19 cells were serum starved in serum free DMEM: F12 for 1 hour at 37° C. Peptide: Lipid complexes (100 μL total volume per well) were transferred to ARPE-19 cells for 2 hours at 37° C. Cells were washed, fixed, and intracellular fluorescence was read on Promega GloMax at 475 nm excitation, 500-550 emission. Fluorescence values were background corrected from no treatment conditions. Data are presented as mean+SD for two runs.
FIG. 15 illustrates ARPE-19 cholesterol import titration curves for a subset of the peptides. ARPE-19 cells were seeded on 96-well plates at 25,000 cells per well and grown to confluence. A 2× solution of 500 μM DMPC and 50 μM BODIPY-Cholesterol was prepared in serum free DMEM: F12. Peptides were diluted to 0.74-60 μM in serum free DMEM: F12 (2× solutions). Peptides were added to lipid solution in equal parts (60 μL each) to create final peptide concentrations of 0.37-30 µM and incubated for 1 hour at 37° C. ARPE-19 cells were serum starved in serum free DMEM: F12 for 1 hour at 37° C. Peptide: Lipid complexes (100 μL total volume per well) were transferred to ARPE-19 cells for 2 hours at 37° C. Cells were washed, fixed, and intracellular fluorescence was read on Promega GloMax at 475 nm excitation, 500-550 emission. Fluorescence values were background corrected from no treatment conditions. […]
ARPE-19 cells were seeded on 96-well plates at 25,000 cells per well and grown to confluence. […] Cells were washed, fixed, and intracellular fluorescence was read on Promega GloMax at 475 nm excitation, 500-550 emission. Fluorescence values were background corrected from no treatment conditions. […]

For the next data set, the system named is HMC3 cells. Nature of the data set: HMC3 cholesterol efflux. The format is cell-based, human. The following applies: for cholesterol efflux titration: HMC3, 0-100 μM peptide, LXR agonist; for cholesterol efflux in the presence of LXR agonist: HMC3, 20 μM peptide, 4 hours.
Data set [4] in a line: DMPC solubility assay, 0.5 mM DMPC (turbidity reduction). Type of data set: biochemical. The following applies: FIGS. 2A-2D and 3A-3C. Here is the method: In this example, peptide stocks were diluted to 200 μM in H2O (a 2× solution) and 50 μL of peptide solution was transferred in triplicate into 96-well plates. A one mM solution of 1,2-dimyristoyl-sn-glycero-3-phosphocholine (DMPC) in H2O was prepared, and using a multichannel pipet, 50 μL DMPC solution was rapidly added to the plate. Peptide and lipid solutions were incubated at room temperature for 15 minutes with a final concentration of 100 μM peptides and 0.5 mM DMPC. After 15 minutes, absorbance was read on a plate reader at 405 nm. […] Data are presented as mean+SD over two runs.
as §1, with “In these experiments, DMPC” for “FIGS. 4A-4B illustrate a screening assay based on DMPC solubility, measured by reducing turbidity of DMPC liposome solutions, for a subset of the peptides in FIGS. 1B-1I. FIGS. 4A-4B illustrate DMPC”, “titration curves were generated.” for “titration curves.”, “A 1” for “A 2”, “and 0.5” for “and 1”

Chain of LDLR (P01130 22-860 limits assumed): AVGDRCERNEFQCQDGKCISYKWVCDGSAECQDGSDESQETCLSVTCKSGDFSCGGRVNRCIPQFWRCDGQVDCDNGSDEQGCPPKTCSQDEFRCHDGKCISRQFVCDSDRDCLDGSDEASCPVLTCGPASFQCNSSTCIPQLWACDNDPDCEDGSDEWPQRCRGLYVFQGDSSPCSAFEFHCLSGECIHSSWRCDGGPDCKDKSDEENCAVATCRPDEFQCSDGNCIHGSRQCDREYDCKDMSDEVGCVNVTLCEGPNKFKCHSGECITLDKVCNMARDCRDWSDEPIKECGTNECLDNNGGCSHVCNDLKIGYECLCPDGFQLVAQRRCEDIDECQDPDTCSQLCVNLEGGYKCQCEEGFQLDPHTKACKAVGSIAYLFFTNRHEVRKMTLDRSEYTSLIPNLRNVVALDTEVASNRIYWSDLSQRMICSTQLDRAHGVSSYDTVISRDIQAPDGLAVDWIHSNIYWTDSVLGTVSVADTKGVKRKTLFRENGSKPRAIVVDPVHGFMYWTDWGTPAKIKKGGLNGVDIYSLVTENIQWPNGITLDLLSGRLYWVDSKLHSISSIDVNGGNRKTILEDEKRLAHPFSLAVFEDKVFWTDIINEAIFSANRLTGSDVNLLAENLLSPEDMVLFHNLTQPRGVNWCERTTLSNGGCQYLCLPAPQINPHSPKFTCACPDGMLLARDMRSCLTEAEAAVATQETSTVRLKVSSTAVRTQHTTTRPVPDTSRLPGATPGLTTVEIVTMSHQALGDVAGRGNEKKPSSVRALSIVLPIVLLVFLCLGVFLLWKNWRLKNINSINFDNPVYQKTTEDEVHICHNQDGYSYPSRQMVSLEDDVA

Usually Kd stands for the free concentration of one partner at which half of the binding sites on the other are occupied at equilibrium, for simple one-to-one binding. The low end stands for tighter binding, the high end for weaker binding. On LDLR, `CC(C)C[C@H](NC(=O)[C@H](Cc1c[nH]cn1)NC(=O)[C@H](CO)NC(=O)[C@H](C)NC(=O)[C@@H](N)CC(C)C)C(=O)N[C@@H](CCCNC(=N)N)C(=O)N[C@@H](CCCCN)C(=O)N[C@@H](CC(C)C)C(=O)N[C@@H](CCCNC(=N)N)C(=O)N[C@@H](CCCCN)C(=O)N[C@@H](CCCNC(=N)N)C(=O)N[C@@H](CC(C)C)C(=O)N[C@@H](CC(C)C)C(=O)N[C@@H](CCCNC(=N)N)C(=O)N[C@@H](CC(=O)O)C(=O)N[C@@H](C)C(=O)N[C@@H](CC(=O)O)C(=O)N[C@@H](CC(=O)O)C(=O)O` [T-073] gave a Kd of 4.27 ± 0.19 µM.

On to `CC(C)C[C@H](NC(=O)[C@H](CCCNC(=N)N)NC(=O)[C@H](CC(=O)O)NC(=O)[C@@H](NC(=O)[C@H](CC(C)C)NC(=O)[C@H](CCCCN)NC(=O)[C@H](CC(=O)O)NC(=O)CNC(=O)[C@H](CC(=O)O)NC(=O)[C@H](CCCNC(=N)N)NC(=O)[C@H](CC(C)C)NC(=O)[C@H](CC(C)C)NC(=O)[C@H](CCCNC(=N)N)NC(=O)[C@H](CCCCN)NC(=O)[C@H](CCCNC(=N)N)NC(=O)[C@H](CC(C)C)NC(=O)[C@H](CCCCN)NC(=O)[C@H](CCCNC(=N)N)NC(=O)[C@H](CC(C)C)NC(=O)[C@@H](N)Cc1c[nH]cn1)C(C)C)C(=O)N[C@@H](C)C(=O)N[C@@H](CCC(=O)O)C(=O)N[C@@H](Cc1ccc(O)cc1)C(=O)N[C@H](C(=O)N[C@@H](C)C(=O)N[C@@H](CCCNC(=N)N)C(=O)N[C@@H](C)C(=O)N[C@@H](CCCCN)C(=O)N[C@@H](CCC(=O)O)C(=O)N[C@@H](C)C(=O)N[C@@H](Cc1ccccc1)C(=O)N[C@@H](CC(=O)O)C(=O)N[C@@H](CCCNC(=N)N)C(=O)O)C(C)C` [T-077] (H-HLRKLRKRLLRDGDKLVDRLAEYVARAKEAFDR-OH), for which, in the data set with ARPE-19 cells [1], the ARPE-19 cell viability result is recorded as “substantial change in viability”. The compound also had a Kd at LDLR of 33.2 ± 37.7 µM.

Usually EC50 stands for the concentration giving half of the maximal effect. The low end stands for an effect from little substance, the high end for a need for much substance. `CC(C)C[C@H](NC(=O)[C@H](C)NC(=O)[C@H](CCCNC(=N)N)NC(=O)[C@H](Cc1ccccc1)NC(=O)[C@H](CCCNC(=N)N)NC(=O)[C@H](CCC(=O)O)NC(=O)[C@@H](N)Cc1c[nH]c2ccccc12)C(=O)N[C@@H](Cc1ccccc1)C(=O)N[C@@H](CCCCN)C(=O)N[C@@H](CCC(=O)O)C(=O)N[C@@H](CC(C)C)C(=O)N[C@@H](C)C(=O)N[C@@H](CC(=O)O)C(=O)N[C@@H](Cc1ccc(O)cc1)C(=O)N[C@@H](Cc1ccccc1)C(=O)N[C@@H](CCCNC(=N)N)C(=O)N[C@@H](CC(=O)O)C(=O)N[C@@H](C)C(=O)O` [T-086] (H-WERFRALFKELADYFRDA-OH; N-terminus and C-terminus assumed): the EC50 in data set [2] is 15.8 µM. Besides, the cholesterol import titration result in the data set on ARPE-19 cells [3] is reported as “not able to increase cholesterol import”. For the same compound, in the data set with HMC3 cells, the cholesterol efflux titration entry is given as “concentration-dependent increase in cholesterol efflux” and the “cholesterol efflux in the presence of LXR agonist” value is recorded as “greater cholesterol efflux”. In addition, the DMPC solubilizing activity entry in data set [4] is reported as “significant activity”.

“REFRALFKELADYFRDAW [T-084, therapeutic peptide]” came in with an EC50 in data set [2] of 16.1 µM. In the data set with HMC3 cells, the cholesterol efflux titration result was “concentration-dependent increase in cholesterol efflux” and the “cholesterol efflux in the presence of LXR agonist” value is given as “greater cholesterol efflux”.
